Here are results for eight compounds from patent US8008230B2, “Synergistic antifungal DDAC compositions” (priority 2004, dated 2011).

Assay [1] concerns Botrytis cinerea. Put plainly: Poison plate assay (MIC and synergy index). The following applies: 168 h. The class given is cell-based, Botrytis cinerea strain BC03019. The protocol:
Activity against fungal growth was determined with the poison plate assay. A calculated amount of a stock solution (containing either DDAC, boscalid, fenhexamid, pyrimethanil, thiophanate-methyl, triflumizole, azoxystrobin, dimoxystrobin, picoxystrobin, or pyraclostrobin in a concentration of 500 ppm in dimethyl sulfoxide) was pipetted into 24-well plates in order to reach a final test concentration ranging from 0.21 to 5 ppm in 12 steps when mixed with a culture medium. These culture media were either Glucose Agar (GA) (10 g glucose, 1.5 g K2HPO4, 2 g KH2PO4, 1 g (NH4)2SO4, 0.5 g MgSO4 and 12.5 g agar in 1 liter deionised water) when pyrimethanil was used as the test substance or Potato Dextrose Agar (PDA) (4 g potato infusion, 20 g bacto dextrose and 15 g bacto agar in 1 liter deionised water) for any of the other test substances. The medium was inoculated with 2 μl of a spore/mycelium suspension. The 24-well plates were kept in the dark at a temperature of 22° C., and a relative humidity of 75% and evaluated for fungal growth after one week.
The following fungi species were used in the poison plate assay: Penicillium digitatum strain Sas (sensitive to demethylase inhibiting fungicides), Penicillium digitatum strain LDW930223 (reduced sensitivity to demethylase inhibiting fungicides), Penicillium italicum strain H17 (reduced sensitivity to demethylase inhibiting fungicides), Botrytis cinerea strain BC03019, Geotrichum candidum, or Gloeosporium album strain A18.
The lowest concentration in ppm of each test compound or mixture of test compounds sufficient to inhibit visible growth was taken as the minimum inhibitory concentration (MIC). When no fungal growth was observed, the abbreviation “ng” was used in Table 2. Synergy was calculated using the Synergy Index method described by von Kull et al. (F. C. Kull, P. C. Eismann, H. D. Sylvestrowicz, R. L. Mayer, 1961, Applied Microbiology 9: 538-541).
Synergistic Index (SI)=(x/m)+(y/n) • m and n are the MIC values of test substances 1 and 2 respectively, when applied alone • x and y are the respective quantities of test substances 1 and 2 in mixtures which also cause the complete inhibition of fungal growth, i.e. x and y equal [quantity of test substances 1 and 2, resp., in the mixture (e.g. 0.8 and 0.2, 066 and 0.33 . . . )] multiplied by [MIC-value of the mixture]. […] A result smaller than 1 indicates a synergistic effect of the combination.

Assay [2] deals with Penicillium digitatum. Briefly: Curative treatment by dipping of lemons artificially inoculated with Penicillium digitatum. The class given is in vivo. The following applies: read-out: % Efficacy. The protocol: Aqueous test solutions were prepared with concentrations of 10 μg/ml, 100 μg/ml and 1000 μg/ml of DDAC (I); and 500 μg/ml of imazalil (II-a). These test solutions were used to prepare mixtures comprising component (I) and component (II-a) with a concentration respectively of 1000 μg/ml of (I) and 500 μg/ml of (II-a); 100 μg/ml of (I) and 500 μg/ml of (II-a) and 10 μg/ml of (I) and 500 μg/ml of (II-a).
Lemons were artificially inoculated with a 10 mm diameter cork borer dipped in a spore suspension containing 10^6 cfu/ml of Penicillium digitatum. The lemons were treated after 24 hours by submerging for 30 seconds in one of the test solutions.
Treated and untreated lemons were incubated for 14 days in a dark climate room at 20° C. After the incubation period, the diameter of fungal growth was measured and % efficacy (growth inhibition) versus control was calculated. Fungal growth was quantified by measuring the distance, in mm, between the perimeter of the 10 mm diameter inoculation ring and the perimeter of the damaged zone.
Synergy was considered to occur when the observed effect, or measured activity, of a combination of both components was greater than the corresponding Ec value.

The mark [3] stands for this setting: % DDAC + % test substance 0 + 100 (test substance alone), Potato Dextrose Agar, one week, read-out: MIC (minimum inhibitory concentration in ppm total a.i.).

SMILES strings stand for the structures. Like-named read-outs stand apart in the source and are kept apart here.

For the compound `Cc1cc(C)nc(Nc2ccccc2)n1` [pyrimethanil, 4,6-dimethyl-N-phenyl-2-pyrimidinamine], in assay [1] (% DDAC + % test substance 0 + 100 (test substance alone), Glucose Agar, one week, read-out: MIC (minimum inhibitory concentration in ppm total a.i.)), the MIC amounted to 2.11 µg/mL. As for `COC(=O)NC(=S)Nc1ccccc1NC(=S)NC(=O)OC` [thioph. methyl, 4,4′-(o-phenylene)bis(3-thioallophanate)], the MIC in assay [1] (setting [3]) was found to be 2.11 µg/mL. On to `C=CCOC(Cn1ccnc1)c1ccc(Cl)cc1Cl` (stereo not drawn) [Imazalil (IIa)], for which the Emax at 500 µg/mL in assay [2] (test concentration 500 μg/ml, lemon, dipped 24 h after inoculation, 14 days incubation) turned out to be 78%. With `COC(=O)N(OC)c1ccccc1COc1ccn(-c2ccc(Cl)cc2)n1` [pyraclostrobin, methyl N-(2-[1-(4-chlorophenyl)-1H-pyrazol-3-yloxymethyl]phenyl](N-methoxy)carbamate], the MIC in assay [1] (setting [3]) was greater than 5 µg/mL. For `CCCCCCCCCC[N+](C)(C)CCCCCCCCCC.[Cl-]` [DDAC, didecyl dimethyl ammonium chloride], the MIC in assay [1] (read-out: MIC (minimum inhibitory concentration in ppm total a.i.), % DDAC + % test substance 100 + 0 (DDAC alone), Glucose Agar (pyrimethanil series), one week) turned out to be 5 µg/mL. Further, the MIC in assay [1] (read-out: MIC (minimum inhibitory concentration in ppm total a.i.), % DDAC + % test substance 100 + 0 (DDAC alone), Potato Dextrose Agar, one week) was greater than 5 µg/mL. In addition, in assay [2], the Emax at 10 µg/mL was found to be 0%, the Emax at 100 µg/mL worked out at 0% and the Emax at 1000 µg/mL turned out to be 22%.

For `CCCOC/C(=N\c1ccc(Cl)cc1C(F)(F)F)n1ccnc1` [triflumizole, (E)-4-chloro-α,α,α-trifluoro-N-(1-imidazol-1-yl-2-propoxyethylidene)-o-toluidine], the MIC in assay [1] (read-out: MIC (minimum inhibitory concentration in ppm total a.i.), % DDAC + % test substance 0 + 100 (test substance alone), Potato Dextrose Agar, one week) was greater than 5 µg/mL. As to `CC1(C(=O)Nc2ccc(O)c(Cl)c2Cl)CCCCC1` [fenhexamid, 2′,3′-dichloro-4′-hydroxy-1-methylcyclohexanecarboxanilide], the MIC in assay [1] (setting [3]) came out at 1.58 µg/mL.

Turning to `O=C(Nc1ccccc1-c1ccc(Cl)cc1)c1cccnc1Cl` [boscalid, 2-chloro-N-(4′-chlorobiphenyl-2-yl)-nicotinamide], the MIC in assay [1] (setting [3]) was greater than 5 µg/mL.
